Results taken from PMC6193938, “Characterization of a novel AICARFT inhibitor which potently elevates ZMP and has anti-tumor activity in murine models” (Scientific Reports, 2018).
Where two headings read alike, the source gives them in different places.

Columns and labels:
[1] = mouse, in vivo
FMS = target: T1, FMS (Homo sapiens, UniProt P07333); assay: CEREP protein kinase assay; format: biochemical
T1 construct: purchased CEREP Panlabs (Eurofins)

PDK1 = target: T2, PDK1 (Homo sapiens, UniProt O15530); assay: CEREP protein kinase assay; format: biochemical
T2 construct: purchased CEREP Panlabs (Eurofins)
T2 sequence (O15530 1-556): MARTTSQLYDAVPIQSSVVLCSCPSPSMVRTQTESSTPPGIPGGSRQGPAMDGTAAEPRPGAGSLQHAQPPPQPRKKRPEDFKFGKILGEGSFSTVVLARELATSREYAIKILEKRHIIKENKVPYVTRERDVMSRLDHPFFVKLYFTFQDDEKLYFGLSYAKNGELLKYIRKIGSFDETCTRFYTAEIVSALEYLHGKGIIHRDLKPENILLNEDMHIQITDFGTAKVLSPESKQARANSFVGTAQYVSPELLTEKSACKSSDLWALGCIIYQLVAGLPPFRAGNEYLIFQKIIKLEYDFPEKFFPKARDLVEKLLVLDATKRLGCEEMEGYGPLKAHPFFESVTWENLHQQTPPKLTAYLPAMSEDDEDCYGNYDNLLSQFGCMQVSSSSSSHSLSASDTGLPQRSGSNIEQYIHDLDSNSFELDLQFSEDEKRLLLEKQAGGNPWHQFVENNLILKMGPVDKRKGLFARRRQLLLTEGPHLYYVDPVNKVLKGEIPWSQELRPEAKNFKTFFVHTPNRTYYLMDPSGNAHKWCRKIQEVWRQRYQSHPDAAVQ

NCI-H1437 (lung) = assay: Low folate & high folate in vitro proliferation assay (Alamar Blue); format: cell-based; settings: Homo sapiens
Protocol: (§1) Cells lines were acquired from cell banks, see supplemental material, grown using the cell banks recommended culture conditions (Supplemental Table 3). In some experiments noted “low folate” the cells were washed and grown in folate free RPMI-1640 media (Gibco #27016-021) supplemented with 5 ml 1 M Hepes, 5 ml 100 mM Na pyruvate, 2.5 mg/ml glucose and 10% defined FBS (Hyclone #SH30070) per 500 mL media for 5–7 days to deplete intracellular folate levels prior to the start of the experiment. Where noted, cells were maintained in complete “high folate” RPMI-1640 media (ATCC #30-2001) with 10% defined FBS to contrast with the low folate conditions.
(§2) Cells were cultured using recommended culture conditions unless noted otherwise (Supplemental Table 3). Cells were plated, dosed with compound and incubated at 37 °C for approximately 2 doubling times as determined for each cell line. Cell Titer Glo (Promega) assay was used to measure proliferation according to manufacturer’s recommendations by measuring luminescence with Flexstation3 (Molecular Devices) with 500 ms integration time. […] The % response was fit to a four-parameter logistic equation using ACTIVITYBASE 4.0 to determine the absolute IC50 values.
(§3) For a limited number of cell lines, compound dosing was performed under high or low folate conditions with cell viability being determined with Alamar Blue rather than an ATP dependent assay. Cells were plated and treated as described above. Proliferation was measured using Alamar Blue Cell Viability Reagent (Invitrogen), and read after approximately 1.5–4 hours incubation at 37 °C on the Envision plate reader (Perkin Elmer) with excitation at 570 nm and emission at 585 nm. The % inhibition for each sample was calculated and fit as described above.

HCT 116 (colon) = assay: as above; format: cell-based; settings: Homo sapiens
Protocol: as §1, §2, §3

NCI-H1155 (lung) = assay: as above; format: cell-based; settings: Homo sapiens
Protocol: as §1, §2, §3

A549 (lung) = assay: as above; format: cell-based; settings: Homo sapiens, low folate RPMI media
Protocol: as §1, §2, §3

SNU-16 (gastric) = assay: as above; format: cell-based; settings: Homo sapiens
Protocol: as §1, §2, §3

A101D (melenoma) = assay: as above; format: cell-based; settings: Homo sapiens
Protocol: as §1, §2, §3

NCI-H1299 = assay: as above; format: cell-based; settings: Homo sapiens
Protocol: as §1, §2, §3

MIA PaCa-2 (pancreas) = assay: as above; format: cell-based; settings: Homo sapiens
Protocol: as §1, §2, §3

SW620 (colon) = assay: as above; format: cell-based; settings: Homo sapiens
Protocol: as §1, §2, §3

NCI-H1993 (lung) = assay: as above; format: cell-based; settings: Homo sapiens
Protocol: as §1, §2, §3

MDA-MB-231 (mammary) = assay: as above; format: cell-based; settings: Homo sapiens
Protocol: as §1, §2, §3

WEE1 = target: T3, WEE1 (Homo sapiens, UniProt P30291); assay: CEREP protein kinase assay; format: biochemical
T3 construct: purchased CEREP Panlabs (Eurofins)

MET = target: T4, MET (Homo sapiens, UniProt P08581); assay: CEREP protein kinase assay; format: biochemical
T4 construct: purchased CEREP Panlabs (Eurofins)

CK1e = target: T5, CK1e (Homo sapiens, UniProt P49674); assay: CEREP protein kinase assay; format: biochemical
T5 construct: purchased CEREP Panlabs (Eurofins)

PYK2 = target: T6, PYK2 (Homo sapiens, UniProt Q14289); assay: CEREP protein kinase assay; format: biochemical
T6 construct: purchased CEREP Panlabs (Eurofins)

[2] = RPMI media, read-out: Alamar Blue GI50 Regular folate
[3] = low folate RPMI media, read-out: Alamar Blue GI50 Low folate

T3 sequence (P30291 whole entry): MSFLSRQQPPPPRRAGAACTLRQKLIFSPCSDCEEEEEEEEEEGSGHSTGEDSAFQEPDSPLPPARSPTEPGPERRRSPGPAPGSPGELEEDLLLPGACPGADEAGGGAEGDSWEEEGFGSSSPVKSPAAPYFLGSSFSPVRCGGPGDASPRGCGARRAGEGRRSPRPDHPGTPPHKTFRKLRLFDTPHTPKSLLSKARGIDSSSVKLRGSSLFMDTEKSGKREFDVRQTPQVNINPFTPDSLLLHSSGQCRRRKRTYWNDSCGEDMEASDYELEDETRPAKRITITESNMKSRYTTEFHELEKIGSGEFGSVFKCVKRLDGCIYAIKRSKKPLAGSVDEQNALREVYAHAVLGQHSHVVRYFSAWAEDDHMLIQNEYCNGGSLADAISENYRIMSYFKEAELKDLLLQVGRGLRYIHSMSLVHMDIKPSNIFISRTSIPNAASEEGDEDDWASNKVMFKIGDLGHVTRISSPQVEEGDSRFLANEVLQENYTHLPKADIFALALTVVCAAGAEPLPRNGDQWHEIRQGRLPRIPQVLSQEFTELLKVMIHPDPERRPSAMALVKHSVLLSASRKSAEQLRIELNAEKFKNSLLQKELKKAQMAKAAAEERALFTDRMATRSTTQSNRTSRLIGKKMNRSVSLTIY
T6 sequence (Q14289 whole entry): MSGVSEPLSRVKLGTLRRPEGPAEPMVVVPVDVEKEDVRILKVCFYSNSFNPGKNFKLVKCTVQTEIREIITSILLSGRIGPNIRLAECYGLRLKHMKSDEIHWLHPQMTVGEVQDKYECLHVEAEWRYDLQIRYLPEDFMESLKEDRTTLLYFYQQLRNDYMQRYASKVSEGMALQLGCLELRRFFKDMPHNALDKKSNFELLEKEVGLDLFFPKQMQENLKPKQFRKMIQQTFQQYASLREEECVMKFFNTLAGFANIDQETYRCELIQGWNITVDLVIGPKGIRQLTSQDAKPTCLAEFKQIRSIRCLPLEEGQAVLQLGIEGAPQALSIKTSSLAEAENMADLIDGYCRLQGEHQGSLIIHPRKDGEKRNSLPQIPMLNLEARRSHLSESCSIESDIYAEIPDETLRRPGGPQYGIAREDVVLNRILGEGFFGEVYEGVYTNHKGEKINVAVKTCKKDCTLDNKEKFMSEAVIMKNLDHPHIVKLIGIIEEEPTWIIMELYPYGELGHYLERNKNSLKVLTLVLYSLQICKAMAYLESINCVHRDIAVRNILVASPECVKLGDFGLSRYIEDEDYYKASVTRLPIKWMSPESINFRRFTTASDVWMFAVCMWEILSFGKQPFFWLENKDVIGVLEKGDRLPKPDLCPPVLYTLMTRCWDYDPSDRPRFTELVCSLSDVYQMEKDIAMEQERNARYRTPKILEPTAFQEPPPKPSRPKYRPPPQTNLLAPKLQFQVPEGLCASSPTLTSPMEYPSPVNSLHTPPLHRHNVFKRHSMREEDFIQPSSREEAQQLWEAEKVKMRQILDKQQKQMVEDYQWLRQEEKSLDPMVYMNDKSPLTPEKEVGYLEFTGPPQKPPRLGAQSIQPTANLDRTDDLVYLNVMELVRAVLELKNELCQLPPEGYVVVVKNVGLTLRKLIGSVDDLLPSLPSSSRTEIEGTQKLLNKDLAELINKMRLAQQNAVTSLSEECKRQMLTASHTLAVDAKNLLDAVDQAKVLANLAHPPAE
T5 sequence (P49674 whole entry): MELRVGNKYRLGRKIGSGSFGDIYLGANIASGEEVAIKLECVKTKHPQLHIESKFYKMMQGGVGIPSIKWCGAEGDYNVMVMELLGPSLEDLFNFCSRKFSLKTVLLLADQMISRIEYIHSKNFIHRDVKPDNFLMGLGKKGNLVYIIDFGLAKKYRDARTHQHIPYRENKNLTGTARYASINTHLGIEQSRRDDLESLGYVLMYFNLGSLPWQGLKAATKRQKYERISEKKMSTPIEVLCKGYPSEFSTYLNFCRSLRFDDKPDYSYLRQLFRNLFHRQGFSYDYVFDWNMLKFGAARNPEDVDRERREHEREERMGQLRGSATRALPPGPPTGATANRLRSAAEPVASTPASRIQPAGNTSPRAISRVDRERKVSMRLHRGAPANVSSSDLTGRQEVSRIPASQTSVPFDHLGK
T4 sequence (P08581 25-1390): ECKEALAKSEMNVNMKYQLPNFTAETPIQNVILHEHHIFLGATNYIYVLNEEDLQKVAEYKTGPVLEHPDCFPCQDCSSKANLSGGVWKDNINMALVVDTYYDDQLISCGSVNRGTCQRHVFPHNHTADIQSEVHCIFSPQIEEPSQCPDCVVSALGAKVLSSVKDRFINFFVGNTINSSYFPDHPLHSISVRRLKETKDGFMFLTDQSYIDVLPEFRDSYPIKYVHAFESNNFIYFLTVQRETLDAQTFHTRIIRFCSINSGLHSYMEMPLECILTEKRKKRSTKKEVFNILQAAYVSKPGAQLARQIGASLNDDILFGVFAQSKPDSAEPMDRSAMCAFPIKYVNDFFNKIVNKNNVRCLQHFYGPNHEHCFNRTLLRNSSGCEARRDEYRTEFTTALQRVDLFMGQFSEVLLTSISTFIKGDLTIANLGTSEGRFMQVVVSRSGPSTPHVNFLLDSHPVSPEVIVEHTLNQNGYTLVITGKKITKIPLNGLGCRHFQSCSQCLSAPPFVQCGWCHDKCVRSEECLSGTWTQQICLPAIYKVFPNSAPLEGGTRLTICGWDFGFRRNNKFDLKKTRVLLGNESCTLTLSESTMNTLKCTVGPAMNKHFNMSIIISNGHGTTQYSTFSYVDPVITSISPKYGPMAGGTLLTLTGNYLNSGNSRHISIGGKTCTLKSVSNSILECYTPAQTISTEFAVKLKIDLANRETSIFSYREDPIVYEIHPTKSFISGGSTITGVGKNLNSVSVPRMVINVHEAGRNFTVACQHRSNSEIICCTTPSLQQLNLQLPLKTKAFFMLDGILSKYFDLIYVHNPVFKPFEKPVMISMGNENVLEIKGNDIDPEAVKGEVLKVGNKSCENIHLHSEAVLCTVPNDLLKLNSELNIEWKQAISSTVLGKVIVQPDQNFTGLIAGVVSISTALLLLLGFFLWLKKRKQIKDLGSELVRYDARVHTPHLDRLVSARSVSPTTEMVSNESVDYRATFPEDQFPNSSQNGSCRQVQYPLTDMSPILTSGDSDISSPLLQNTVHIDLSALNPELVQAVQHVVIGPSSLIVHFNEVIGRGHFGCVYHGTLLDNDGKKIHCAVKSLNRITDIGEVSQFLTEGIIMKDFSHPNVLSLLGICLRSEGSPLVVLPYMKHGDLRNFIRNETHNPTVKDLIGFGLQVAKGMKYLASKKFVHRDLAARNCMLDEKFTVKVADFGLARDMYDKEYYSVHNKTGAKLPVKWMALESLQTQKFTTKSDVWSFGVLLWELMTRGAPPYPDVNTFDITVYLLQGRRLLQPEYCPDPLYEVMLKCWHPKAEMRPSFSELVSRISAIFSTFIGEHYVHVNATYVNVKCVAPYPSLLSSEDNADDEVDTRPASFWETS
T1 sequence (P07333 20-972): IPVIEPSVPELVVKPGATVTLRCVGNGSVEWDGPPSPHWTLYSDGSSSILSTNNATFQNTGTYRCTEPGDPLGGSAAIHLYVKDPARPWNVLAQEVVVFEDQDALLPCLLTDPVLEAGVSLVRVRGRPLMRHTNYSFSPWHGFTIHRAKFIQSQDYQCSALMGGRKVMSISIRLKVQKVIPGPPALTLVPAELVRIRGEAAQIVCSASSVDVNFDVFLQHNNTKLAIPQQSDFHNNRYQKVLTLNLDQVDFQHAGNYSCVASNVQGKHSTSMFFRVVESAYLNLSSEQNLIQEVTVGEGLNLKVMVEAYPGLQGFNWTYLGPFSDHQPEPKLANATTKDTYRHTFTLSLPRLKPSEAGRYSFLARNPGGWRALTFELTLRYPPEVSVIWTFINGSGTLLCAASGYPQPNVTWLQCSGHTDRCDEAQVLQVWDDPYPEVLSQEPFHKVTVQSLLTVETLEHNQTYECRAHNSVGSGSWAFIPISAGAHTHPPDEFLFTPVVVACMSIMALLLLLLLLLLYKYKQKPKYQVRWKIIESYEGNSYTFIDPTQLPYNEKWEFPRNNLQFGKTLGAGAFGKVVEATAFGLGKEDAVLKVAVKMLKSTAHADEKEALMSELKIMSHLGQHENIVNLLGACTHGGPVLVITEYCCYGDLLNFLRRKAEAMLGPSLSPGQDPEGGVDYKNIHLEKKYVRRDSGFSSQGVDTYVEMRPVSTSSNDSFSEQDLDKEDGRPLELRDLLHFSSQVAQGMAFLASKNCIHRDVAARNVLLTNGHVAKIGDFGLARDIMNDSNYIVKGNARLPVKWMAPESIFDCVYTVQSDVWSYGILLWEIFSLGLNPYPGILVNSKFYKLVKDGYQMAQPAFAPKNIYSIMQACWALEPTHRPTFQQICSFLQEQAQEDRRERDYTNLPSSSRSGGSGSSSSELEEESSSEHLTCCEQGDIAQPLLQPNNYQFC

For `O=c1[nH]ccc2cc(F)c(NS(=O)(=O)c3ccc(N4CC[C@@H](O)C4)s3)cc12` [LSN3213128, N-(6-Fluoro-1-oxo-1,2-dihydroisoquinolin-7-yl)-5-[(3R)-3-hydroxypyrrolidin-1-yl]thiophene-2-sulfonamide], the “tolerability of efficacy studies” value [1] was “toxicity upon repeated dosing”, the inhibition at 0.2 µM (FMS; @ 0.2 uM) was 2.06% and the inhibition at 2 µM (FMS; @ 2 uM) was 19.2%. The inhibition at 20 µM (FMS; @ 20 uM) was 48.4%, the inhibition at 0.2 µM (PDK1; @ 0.2 uM) was 14.1% and the inhibition at 2 µM (PDK1; @ 2 uM) was 15.8%. The inhibition at 20 µM (PDK1; @ 20 uM) was 26.8%, the GI50 (NCI-H1437 (lung); [2]) was 1880 ± 894 nM and the GI50 (NCI-H1437 (lung); [3]) was 0.73 nM. The GI50 (HCT 116 (colon); [2]) was 2810 ± 1220 nM, the GI50 (HCT 116 (colon); [3]) was 2.2 ± 2.1 nM and the GI50 (NCI-H1155 (lung); [2]) was 729 ± 215 nM. For the same compound, the GI50 (NCI-H1155 (lung); [3]) was 4.9 nM, the GI50 (A549 (lung)) was 6 nM and the GI50 (SNU-16 (gastric); [2]) was 1590 ± 1270 nM. The GI50 (SNU-16 (gastric); [3]) was 1.2 ± 1.2 nM, the GI50 (A101D (melenoma); [2]) was 3290 nM and the GI50 (A101D (melenoma); [3]) was 2.9 nM. It also gave a GI50 (NCI-H1299; [2]) of 1590 nM, a GI50 (NCI-H1299; [3]) of 4.8 nM and a GI50 (MIA PaCa-2 (pancreas); [2]) of 4870 ± 4200 nM. For the same compound, the GI50 (MIA PaCa-2 (pancreas); [3]) was 1.6 ± 1 nM, the GI50 (SW620 (colon); SW-620, RPMI media, read-out: Alamar Blue GI50 Regular folate) was 3910 ± 3240 nM and the GI50 (SW620 (colon); SW-620, low folate RPMI media, read-out: Alamar Blue GI50 Low folate) was 8.8 ± 1.6 nM. For the same compound, the GI50 (NCI-H1993 (lung); [2]) was 2680 ± 2540 nM, the GI50 (NCI-H1993 (lung); [3]) was 3 ± 2.7 nM and the GI50 (MDA-MB-231 (mammary); [2]) was 85 ± 42 nM. For the same compound, the GI50 (MDA-MB-231 (mammary); [3]) was 0.49 nM, the inhibition at 0.2 µM (WEE1; @ 0.2 uM) was 1.15% and the inhibition at 2 µM (WEE1; @ 2 uM) was 7.31%. The inhibition at 20 µM (WEE1; @ 20 uM) was 14.2%, the inhibition at 0.2 µM (MET; @ 0.2 uM) was -5.89% and the inhibition at 2 µM (MET; @ 2 uM) was 8.99%. It also gave an inhibition at 20 µM (MET; @ 20 uM) of 17.8%, an inhibition at 0.2 µM (CK1e; @ 0.2 uM) of -4.69% and an inhibition at 2 µM (CK1e; @ 2 uM) of -1.12%. The inhibition at 20 µM (CK1e; @ 20 uM) was 7.65%, the inhibition at 0.2 µM (PYK2; @ 0.2 uM) was -25.1% and the inhibition at 2 µM (PYK2; @ 2 uM) was -1.17%. The inhibition at 20 µM (PYK2; @ 20 uM) was 16.5%.
